Measured values from patent publication US6458983B1, “Method for synthesizing complexes of platinum with iminoethers and their use as antitumoral drugs and nucleotide-base modifiers” (priority 1998, dated 2002).
Marks after values point to notes of the source that are not given here.

Legend:
[1] = system: pulmonary carcinoma (Calu); test: Inhibition of in vitro proliferation of human tumor cells, Calu; type: cell-based; conditions: 72 hours treatment, cell number vs untreated control; read-out: Inhibitory concentrations (IC50) Calu
Description: (§1) The antitumoral activity of compounds having the formula trans-[PtCl2(NH3){Z-HN═C(OMe)Me}] (1) and trans-[PtCl2(NH3){E-HN═C(OMe)Me}] (2) was tested. Specifically, the antitumoral activity of compounds (1) and (2) was analyzed in experimental systems in vitro, testing for inhibition of the proliferation of human tumor cells in culture and in vivo by testing the increment in survival of mice carriers of P388 murine leukemia.
(§2) The inhibitory effect of compounds (1) and (2) on the in vitro proliferation of human tumor cells of ovarian carcinoma (A2780), pulmonary carcinoma (Calu), colon carcinoma (LoVo) and on an ovarian carcinoma line (A2780/cp8) with resistance to cisplatinum is presented in the following Table I.
(§3) Proliferation inhibition is expressed by means of IC50 values, which indicate the concentration of compound (μM) in the culture medium that determines a 50% reduction in the proliferation of the treated cells with respect to untreated cells.
(§4) The IC50 values were extrapolated from dose-response curves obtained by treating for 72 hours the tumor cells with various concentrations of the tested compounds dissolved in the culture medium and checking, at the end of the incubation period, the number of cells present in the treated samples with respect to the number of cells in the untreated samples (control).

P388 murine leukaemia = test: Antitumoral activity in vivo, survival of P388 murine leukemia carrier mice; design: species or system B6D2F1 female mice
Description: as §1
The antiumoral activity in vivo of compounds 1 and 2, expressed as an increment in the survival of P388 murine leukemia carrier mice, was also tested.
(§5) ^a P388 leukemic cells (10^6/animal) were inoculated in the peritoneum in B6D2F1 female mice (body weight=18 g) on day 0; treatment with the platinum compounds, dissolved at the time of use in a physiological solution, was performed on days 1-7, administering IP the doses indicated in the table in a volume equal to 0.1 ml/10 g body weight.
^c ILS=(average of the days of survival of treated mice/average of days of survival of untreated mice) X 100.

colon carcinoma (LoVo) = test: Inhibition of in vitro proliferation of human tumor cells, LoVo; type: cell-based; conditions: 72 hours treatment, cell number vs untreated control; read-out: Inhibitory concentrations (IC50) Lo Vo
Description: as §1, §2, §3, §4

[2] = system: ovarian carcinoma line (A2780/cp8) with resistance to cisplatinum; test: Inhibition of in vitro proliferation of human tumor cells, A2780/cp8; type: cell-based; conditions: 72 hours treatment, cisplatinum-resistant line; read-out: Inhibitory concentrations (IC50) A2780/cp8
Description: as §1, §2, §3, §4

[3] = Body weight variation and toxicity in treated P388 carrier mice; type: in vivo; conditions: at the end of the treatment
Description: as §5
^b Percentage variation of body weight of the animals at the end of the treatment.

[4] = system: ovarian carcinoma (A2780); test: Inhibition of in vitro proliferation of human tumor cells, A2780; type: cell-based; conditions: 72 hours treatment, cell number vs untreated control; read-out: Inhibitory concentrations (IC50) A2780
Description: as §1, §2, §3, §4

[5] = background statement; cited from earlier work
tumor cells = conditions: cited from earlier work
[6] = system: solid and lymphoproliferative murine tumors; conditions: background statement; cited from earlier work
[7] = 10 mg/kg IP daily, ILS = (average survival days treated/untreated) × 100
[8] = 15 mg/kg IP daily, ILS = (average survival days treated/untreated) × 100
[9] = 20 mg/kg IP daily, ILS calculated on 4 animals

**Q.** With COC(C)=N.N.[Cl][Pt][Cl] [Compound 1, trans-[PtCl2(NH3){Z-HN═C(OMe)Me}]] as the molecule, how does the IC50 [1] read?
**A.** Its IC50 is 90 µM.

**Q.** And the ILS (P388 murine leukaemia; [7])?
**A.** Its ILS is 165.

**Q.** What about the ILS (P388 murine leukaemia; [8]) of the same molecule?
**A.** Its ILS is 173.

**Q.** What about the ILS (P388 murine leukaemia; [9]) of the same molecule?
**A.** Its ILS is 190^d.

**Q.** What about the IC50 (colon carcinoma (LoVo)) of the same molecule?
**A.** The IC50 was 21 µM.

**Q.** And the IC50 [2]?
**A.** The IC50 was 35 µM.

**Q.** What about the “Percentage variation of body weight” value ([3]; 10 mg/kg IP daily) of the same molecule?
**A.** The value was −1.5%.

**Q.** What about the “Percentage variation of body weight” value ([3]; 15 mg/kg IP daily) of the same molecule?
**A.** The value was −4.4%.

**Q.** What about the “Percentage variation of body weight” value ([3]; 20 mg/kg IP daily) of the same molecule?
**A.** The value was −11.5%.

**Q.** And the IC50 [4]?
**A.** Its IC50 is 37 µM.

**Q.** Which results are given for COC(C)=N.N.[Cl][Pt][Cl] [Compound 2, trans-[PtCl2(NH3){E-HN═C(OMe)Me}]]?
**A.** IC50 [1]: 55 µM; ILS (P388 murine leukaemia; [7]): 128; ILS (P388 murine leukaemia; [8]): 152; ILS (P388 murine leukaemia; [9]): 132^e; IC50 (colon carcinoma (LoVo)): 7 µM; IC50 [2]: 8.6 µM; Percentage variation of body weight ([3]; 10 mg/kg IP daily): −1.8%; Percentage variation of body weight ([3]; 15 mg/kg IP daily): −3.1%; Percentage variation of body weight ([3]; 20 mg/kg IP daily): −10%; IC50 [4]: 8.5 µM

**Q.** With N.N.[Cl][Pt+2][Cl] [trans-DDP, trans-[PtCl2(NH3)2]] as the molecule, how does the antitumoral activity [5] read?
**A.** The antitumoral activity was “no antitumoral activity”.

**Q.** Which antitumoral activity [5] does the source give for N.NC1CCCCC1.[OH][Pt]([OH])([Cl])[Cl] [trans-[PtCl2(OH)2(NH3){NH2(C6H11)}]] here?
**A.** Its antitumoral activity is “antitumoral activity in vitro and in vivo”.

**Q.** With [Cl][Pt][Cl].c1ccncc1.c1ccncc1 [trans-[PtCl2(pyridine)2]] as the molecule, how does the “cytotoxic effect in vitro against tumor cells” value (tumor cells) read?
**A.** The value was “higher cytotoxic effect in vitro against tumor cells than trans-DDP”.

**Q.** Which “antitumoral activity in vivo” value [6] does the source give for COC(C)=N.COC(C)=N.[Cl][Pt][Cl] [trans-[PtCl2{E-HN═C(OMe)Me}2]] here?
**A.** Its value is “antitumoral activity in vivo”.
